Activity calls are given as the source filed them.
How the values were obtained:
[1] = target: T1, E3 ubiquitin-protein ligase XIAP (Homo sapiens, UniProt P98170); assay: Counter Screen using XIAP-Bir3 for Chemical Antagonists of Bir1/2 domains of IAP-family anti-apoptotic proteins. [Related pubchem assays (depositor defined):AID1018, AID1449, AID1514, AID1638, AID1749, AID1750, AID488957, AID488963]
[2] = target: T1, E3 ubiquitin-protein ligase XIAP; assay: XIAP antagonists, biochemical, IAP family, fluorescence polarization (AID 1018); format: functional
[3] = target: T2, Cannabinoid receptor 1 (Homo sapiens, UniProt P21554); assay: SAR analysis of antagonists of the Cannabinoid Receptor 1 using an Image-Based Assay - Set 3. [Related pubchem assays (depositor defined):AID1961, AID1965]; format: functional
[4] = target: T3, G-protein coupled receptor 35 (Homo sapiens, UniProt Q9HC97); assay: SAR analysis of Agonists of the GPR35 Receptor using an Image-Based Assay - Set 3. [Related pubchem assays (depositor defined):AID1961, AID1965]; format: functional
[5] = target: T4, Cannabinoid receptor 2 (Homo sapiens, UniProt P34972); assay: SAR analysis of agonists of the Cannabinoid Receptor 2 using an Image-Based Assay - Set 2. [Related pubchem assays (depositor defined):AID1961, AID1965]; format: functional
[6] = target: T2, Cannabinoid receptor 1; assay: SAR analysis of agonists of the Cannabinoid Receptor 1 using an Image-Based Assay - Set 3. [Related pubchem assays (depositor defined):AID1961, AID1965]; format: functional
[7] = target: G-protein coupled receptor 55 (Homo sapiens, UniProt Q9Y2T6); assay: SAR analysis of selective Agonists of GPR55 using an Image-Based Assay - Set 2. [Related pubchem assays (depositor defined):AID1961, AID1965]; format: functional
[8] = target: T3, G-protein coupled receptor 35; assay: SAR analysis of Antagonists of the GPR35 Receptor using an Image-Based Assay - Set 4. [Related pubchem assays (depositor defined):[…]]; format: functional
[9] = target: T4, Cannabinoid receptor 2; assay: SAR analysis of antagonists of the Cannabinoid Receptor 2 using an Image-Based Assay - Set 2. [Related pubchem assays (depositor defined):AID1961, AID1965]; format: functional
[10] = system: Saccharomyces cerevisiae; assay: NALP1 inhibitor project selectivity study, Caspase-1/ASC signal blockade IC50 in S. cerevisiae (AID 488863); format: functional, organism-based
[11] = target: NACHT, LRR and PYD domains-containing protein 1 (Homo sapiens, UniProt Q9C000); assay: NALP1 inhibitors in yeast, dose response, luminescent (AID 488860); format: functional
[12] = target: T5, Probable nicotinate-nucleotide adenylyltransferase (Staphylococcus aureus (strain N315), UniProt P65502); format: functional, Staphylococcus aureus subsp. aureus N315;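 as to IC50 Mean: confirmatory dose-response retesting of NadD inhibitor hits first found in an ultra-high-throughput screen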
[13] = target: T6, SUMO-activating enzyme (Homo sapiens, UniProt Q9UBT2); assay: inhibitors of in vitro SUMOylation cascade, primary screen, biochemical, HTRF, uHTS (AID 2006); format: protein-complex assay
[14] = target: Induced myeloid leukemia cell differentiation protein Mcl-1 (Homo sapiens, UniProt Q07820); format: functional
[15] = target: T5, Probable nicotinate-nucleotide adenylyltransferase; format: functional, Staphylococcus aureus subsp. aureus N315; details: read-out: IC50_Mean
[16] = target: T6, SUMO-activating enzyme; assay: SUMOylation inhibitor hit validation, confirmation, SUMOylation inhibitor project, biochemical, AlphaScreen (AID 2018); format: functional
[17] = inhibition of K1F phage lysis, E. coli UTI89, bacterial capsule biogenesis inhibitors, alamar blue (AID 488966); format: functional
[18] = target: Coagulation factor XII (Homo sapiens, UniProt P00748); format: functional;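 also: activated factor XIIa alpha cleaving a fluorogenic AMC peptide substrate; inhibitor potency from loss of enzyme activity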
[19] = target: T7, Microphthalmia-associated transcription factor (Homo sapiens, UniProt O75030); assay: TRPM1 promoter luciferase signal decrease, dose response, MITF inhibitor project, cell-based, SK-MEL-5, cherry-picked, set 3 (AID 493073); format: functional
T7 sequence (O75030 whole entry): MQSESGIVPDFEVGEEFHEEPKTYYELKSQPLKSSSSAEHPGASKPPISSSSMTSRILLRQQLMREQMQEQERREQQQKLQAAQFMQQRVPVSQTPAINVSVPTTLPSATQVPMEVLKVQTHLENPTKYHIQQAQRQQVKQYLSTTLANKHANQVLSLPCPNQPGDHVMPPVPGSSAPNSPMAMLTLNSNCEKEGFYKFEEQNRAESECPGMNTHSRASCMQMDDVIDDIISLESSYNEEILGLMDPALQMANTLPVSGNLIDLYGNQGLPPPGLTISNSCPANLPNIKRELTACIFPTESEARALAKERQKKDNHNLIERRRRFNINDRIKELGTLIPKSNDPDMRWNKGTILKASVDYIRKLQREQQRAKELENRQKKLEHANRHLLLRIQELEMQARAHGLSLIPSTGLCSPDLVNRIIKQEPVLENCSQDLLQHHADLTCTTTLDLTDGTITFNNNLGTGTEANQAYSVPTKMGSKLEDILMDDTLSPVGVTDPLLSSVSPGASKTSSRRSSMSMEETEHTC

[20] = target: E3 ubiquitin-protein ligase Mdm2 (Homo sapiens, UniProt Q00987); assay: enhancers of MDM2-luciferase reporter signal, concentration-effect titration, project on inhibitors of MDM2 ubiquitin ligase, cellular assay, luminescent readout, 384-well plate format (AID 1394); format: functional;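 also: MDM2 E3 inhibitors raise luminescence so EC50 is for signal enhancement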
[21] = target: T8, Voltage-gated N-type calcium channel alpha-1B subunit/Amyloid beta A4 precursor protein-binding family A member 1 (Homo sapiens, UniProt Q00975+Q02410); format: protein assay
[22] = target: Hepatocyte nuclear factor 4-alpha (Homo sapiens, UniProt P41235); format: functional, cell-based;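 also: biochemical luminescence-based dose-response counterscreen measuring inhibition of HNF4 dimerization, run alongside a screen for blockers of ABHD5–perilipin-5 interaction; split luciferase complementation of HNF4 fusion proteins in cell lysate measuring dimerization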
[23] = target: T8, Voltage-gated N-type calcium channel alpha-1B subunit/Amyloid beta A4 precursor protein-binding family A member 1; format: protein assay; remark: listed apart in the source
[24] = target: T9, Alkaline phosphatase, tissue-nonspecific isozyme (Homo sapiens, UniProt P05186); assay: TNAP enzyme activators, dose response, selectivity assay for human IAP activator project, biochemical, TNAP isozyme, human IAP uHTS hits (AID 488886); format: functional;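 also: potency of compounds raising TNAP activity as a selectivity check on IAP activators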
T9 sequence (P05186 whole entry): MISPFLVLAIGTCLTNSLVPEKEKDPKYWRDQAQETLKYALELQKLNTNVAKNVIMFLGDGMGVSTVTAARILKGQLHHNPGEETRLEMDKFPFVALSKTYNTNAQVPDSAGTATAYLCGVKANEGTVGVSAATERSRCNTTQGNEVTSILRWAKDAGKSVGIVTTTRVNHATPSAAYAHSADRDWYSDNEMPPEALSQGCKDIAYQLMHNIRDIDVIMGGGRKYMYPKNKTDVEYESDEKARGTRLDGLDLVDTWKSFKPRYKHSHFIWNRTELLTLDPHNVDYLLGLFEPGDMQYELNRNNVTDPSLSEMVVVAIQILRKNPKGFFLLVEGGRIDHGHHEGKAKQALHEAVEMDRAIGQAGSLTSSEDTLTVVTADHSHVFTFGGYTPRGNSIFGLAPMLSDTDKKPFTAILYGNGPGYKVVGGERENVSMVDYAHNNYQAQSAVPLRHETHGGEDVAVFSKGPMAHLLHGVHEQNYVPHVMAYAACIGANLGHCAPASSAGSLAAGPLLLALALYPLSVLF

[25] = target: T10, Intestinal-type alkaline phosphatase (Homo sapiens, UniProt P09923); assay: human IAP activators, dose response, biochemical, luminescent, uHTS hits, set 2 (AID 488817); format: functional;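 also: potency of activators that raise enzyme activity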
[26] = target: Intestinal-type alkaline phosphatase (Mus musculus, UniProt P24822); assay: PubChem AID 488875; format: functional
[27] = target: T10, Intestinal-type alkaline phosphatase; assay: human intestinal alkaline phosphatase activators, dose response, biochemical, luminescence, uHTS hits (AID 463120); format: functional
[28] = target: Potassium voltage-gated channel subfamily KQT member 2 (Rattus norvegicus, UniProt O88943); assay: retigabine-insensitive KCNQ2 potentiators, concentration-response, dose response, cell-based, retigabine-insensitive compounds (AID 2654); format: functional
[29] = target: T11, Kappa-type opioid receptor (Homo sapiens, UniProt P41145); assay: SAR analysis of small molecule antagonists of the kappa opioid receptor via a luminescent beta-arrestin assay - Set 3. [Related pubchem assays (depositor defined):AID1777, AID1778, AID1785, AID1786, AID1966, AID2133, AID2136, AID2285, AID2495]; format: functional
[30] = target: T11, Kappa-type opioid receptor; assay: SAR analysis of Antagonists of the Kappa Opioid Receptor (KOR) using an Image-Based Assay - Set 3. [Related pubchem assays (depositor defined):AID1777, AID1785]; format: functional
[31] = target: T12, Delta-type opioid receptor (Homo sapiens, UniProt P41143); assay: SAR Analysis of Antagonists of the DOR Receptor using an Image-Based Assay - Set 3. [Related pubchem assays (depositor defined):AID1777, AID1785]; format: functional
[32] = target: T13, Mu-type opioid receptor (Homo sapiens, UniProt P35372); assay: SAR Analysis of Antagonists of the MOR Receptor using an Image-Based Assay - Set 3. [Related pubchem assays (depositor defined):AID1777, AID1785, AID1786, AID1966, AID2133, AID2136, AID2284, AID2285, AID2420]; format: functional
[33] = target: T11, Kappa-type opioid receptor; assay: SAR analysis of small molecule agonists of the kappa opioid receptor via a luminescent beta-arrestin assay - Set 3. [Related pubchem assays (depositor defined):AID1777, AID1785, AID1786, AID1966, AID2133, AID2136, AID2284, AID2500]; format: functional
[34] = target: T12, Delta-type opioid receptor; assay: SAR Analysis of Agonists of the DOR Receptor using an Image-Based Assay - Set 3. [Related pubchem assays (depositor defined):AID1777, AID1786]; format: functional
[35] = target: T13, Mu-type opioid receptor; assay: SAR Analysis of Agonists of the MOR Receptor using an Image-Based Assay - Set 3. [Related pubchem assays (depositor defined):AID1777, AID1785, AID1786, AID1966, AID2133, AID2136, AID2284, AID2285, AID2352]; format: functional
[36] = target: T11, Kappa-type opioid receptor; assay: KOR agonist analogs, arrestin-GFP redistribution, SAR follow-up, imaging, image-based, set 3 (AID 488833); format: functional
[37] = target: T14, Sphingosine 1-phosphate receptor 4 (Homo sapiens, UniProt O95977); assay: Late-stage fluorescence dose response cell-based assay to identify agonists of the Sphingosine 1-Phosphate Receptor 4 (S1P4): purchased compounds EC50. [Related pubchem assays (depositor defined):AID1509, AID1523, AID1563, AID1686, AID1701, AID1801]; format: functional
T14 sequence (O95977 whole entry): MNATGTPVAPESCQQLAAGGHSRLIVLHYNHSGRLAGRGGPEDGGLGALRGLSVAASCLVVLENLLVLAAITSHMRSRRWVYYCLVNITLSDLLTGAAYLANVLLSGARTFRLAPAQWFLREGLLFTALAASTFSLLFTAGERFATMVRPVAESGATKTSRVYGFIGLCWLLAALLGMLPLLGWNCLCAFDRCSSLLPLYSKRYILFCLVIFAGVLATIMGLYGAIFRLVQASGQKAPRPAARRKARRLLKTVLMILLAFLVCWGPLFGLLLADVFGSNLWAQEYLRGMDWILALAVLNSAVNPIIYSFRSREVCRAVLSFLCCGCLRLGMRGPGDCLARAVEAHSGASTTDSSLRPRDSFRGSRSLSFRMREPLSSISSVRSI

[38] = target: Hexokinase (Trypanosoma brucei, UniProt Q38C41); assay: Confirmation assay for inhibitors of Trypanosoma brucei hexokinase 1-Analogue-first series. [Related pubchem assays (depositor defined):AID1430, AID1632, AID2516, AID2560, AID2579, AID2600, AID449725, AID492951]; format: functional

T11 sequence (P41145 whole entry): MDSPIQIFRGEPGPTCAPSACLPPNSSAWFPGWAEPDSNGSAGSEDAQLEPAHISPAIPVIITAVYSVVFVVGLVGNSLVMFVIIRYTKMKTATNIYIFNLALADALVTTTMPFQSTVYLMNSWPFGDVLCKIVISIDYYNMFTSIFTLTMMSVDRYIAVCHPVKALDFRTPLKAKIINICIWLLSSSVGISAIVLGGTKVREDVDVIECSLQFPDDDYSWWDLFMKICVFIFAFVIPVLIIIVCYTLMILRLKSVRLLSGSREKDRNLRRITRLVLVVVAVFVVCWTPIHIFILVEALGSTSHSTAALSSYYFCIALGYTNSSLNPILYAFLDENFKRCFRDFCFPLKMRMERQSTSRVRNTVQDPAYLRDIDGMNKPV
T12 sequence (P41143 whole entry): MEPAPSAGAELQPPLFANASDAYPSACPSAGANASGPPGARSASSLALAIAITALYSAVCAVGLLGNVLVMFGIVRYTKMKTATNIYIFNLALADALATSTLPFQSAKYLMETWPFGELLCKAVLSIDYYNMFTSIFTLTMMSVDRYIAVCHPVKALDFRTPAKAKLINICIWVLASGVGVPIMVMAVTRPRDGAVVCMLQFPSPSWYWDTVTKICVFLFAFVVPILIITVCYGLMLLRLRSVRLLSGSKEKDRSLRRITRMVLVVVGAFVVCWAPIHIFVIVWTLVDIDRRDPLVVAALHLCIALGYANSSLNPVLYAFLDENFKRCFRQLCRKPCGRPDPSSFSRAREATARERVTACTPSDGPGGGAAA
T8 sequence (Q00975 whole entry, the tested form may be a part): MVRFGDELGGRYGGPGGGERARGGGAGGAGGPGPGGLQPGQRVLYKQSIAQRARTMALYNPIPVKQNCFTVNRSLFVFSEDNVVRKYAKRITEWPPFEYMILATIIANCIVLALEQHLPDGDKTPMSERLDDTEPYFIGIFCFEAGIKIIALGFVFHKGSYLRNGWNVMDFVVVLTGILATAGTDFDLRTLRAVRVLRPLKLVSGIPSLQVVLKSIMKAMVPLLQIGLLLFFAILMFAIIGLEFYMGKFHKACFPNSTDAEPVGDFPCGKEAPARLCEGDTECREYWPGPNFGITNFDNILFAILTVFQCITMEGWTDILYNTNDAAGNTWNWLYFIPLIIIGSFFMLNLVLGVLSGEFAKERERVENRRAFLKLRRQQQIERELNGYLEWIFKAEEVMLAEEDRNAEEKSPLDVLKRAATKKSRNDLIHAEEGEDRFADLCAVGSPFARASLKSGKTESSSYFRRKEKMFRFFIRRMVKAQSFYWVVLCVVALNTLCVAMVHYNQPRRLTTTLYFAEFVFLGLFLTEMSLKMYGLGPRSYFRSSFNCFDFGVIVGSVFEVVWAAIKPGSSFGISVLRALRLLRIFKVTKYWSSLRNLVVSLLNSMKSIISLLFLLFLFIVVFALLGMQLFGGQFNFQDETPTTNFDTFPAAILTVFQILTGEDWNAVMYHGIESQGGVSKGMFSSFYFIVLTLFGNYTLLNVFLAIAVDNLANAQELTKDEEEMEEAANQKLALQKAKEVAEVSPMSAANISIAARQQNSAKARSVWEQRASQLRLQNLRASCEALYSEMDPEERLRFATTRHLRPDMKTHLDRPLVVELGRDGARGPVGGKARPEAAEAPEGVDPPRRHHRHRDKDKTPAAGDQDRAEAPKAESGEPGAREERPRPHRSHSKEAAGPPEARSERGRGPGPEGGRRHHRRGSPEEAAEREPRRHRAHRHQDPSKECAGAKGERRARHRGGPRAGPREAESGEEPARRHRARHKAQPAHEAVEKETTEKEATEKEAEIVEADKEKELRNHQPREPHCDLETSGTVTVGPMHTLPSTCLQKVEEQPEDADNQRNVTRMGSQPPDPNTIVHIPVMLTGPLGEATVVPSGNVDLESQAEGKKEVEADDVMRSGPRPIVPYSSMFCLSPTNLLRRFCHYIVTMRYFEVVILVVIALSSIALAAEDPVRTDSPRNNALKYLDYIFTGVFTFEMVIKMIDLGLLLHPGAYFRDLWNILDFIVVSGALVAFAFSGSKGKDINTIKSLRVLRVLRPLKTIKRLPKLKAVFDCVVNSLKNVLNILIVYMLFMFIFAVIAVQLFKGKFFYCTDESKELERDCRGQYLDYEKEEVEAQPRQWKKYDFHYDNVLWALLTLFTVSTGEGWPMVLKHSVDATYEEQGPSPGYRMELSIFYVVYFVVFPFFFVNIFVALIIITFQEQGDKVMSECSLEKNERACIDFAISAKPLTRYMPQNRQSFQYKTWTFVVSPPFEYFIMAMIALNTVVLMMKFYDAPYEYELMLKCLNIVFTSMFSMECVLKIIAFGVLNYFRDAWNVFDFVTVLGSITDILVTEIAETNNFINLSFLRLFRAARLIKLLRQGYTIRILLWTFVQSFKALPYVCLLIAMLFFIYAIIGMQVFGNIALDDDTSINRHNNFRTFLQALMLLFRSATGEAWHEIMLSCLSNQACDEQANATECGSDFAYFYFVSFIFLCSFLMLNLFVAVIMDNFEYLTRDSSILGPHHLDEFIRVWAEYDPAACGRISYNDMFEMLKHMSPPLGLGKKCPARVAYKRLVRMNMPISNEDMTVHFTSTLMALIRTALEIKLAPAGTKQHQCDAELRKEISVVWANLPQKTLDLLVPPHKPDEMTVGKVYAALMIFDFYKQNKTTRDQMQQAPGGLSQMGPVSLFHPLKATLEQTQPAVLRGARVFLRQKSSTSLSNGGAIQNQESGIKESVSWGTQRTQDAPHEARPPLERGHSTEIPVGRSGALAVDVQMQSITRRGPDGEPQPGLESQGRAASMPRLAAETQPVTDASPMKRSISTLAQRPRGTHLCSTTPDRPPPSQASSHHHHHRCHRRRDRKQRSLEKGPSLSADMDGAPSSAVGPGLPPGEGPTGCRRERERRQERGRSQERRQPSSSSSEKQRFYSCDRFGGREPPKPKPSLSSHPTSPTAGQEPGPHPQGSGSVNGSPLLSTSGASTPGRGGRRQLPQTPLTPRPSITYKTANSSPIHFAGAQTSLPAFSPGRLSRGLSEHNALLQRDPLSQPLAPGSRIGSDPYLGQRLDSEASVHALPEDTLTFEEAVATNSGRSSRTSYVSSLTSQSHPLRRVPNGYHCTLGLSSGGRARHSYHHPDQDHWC
T8 sequence (Q02410 whole entry, the tested form may be a part): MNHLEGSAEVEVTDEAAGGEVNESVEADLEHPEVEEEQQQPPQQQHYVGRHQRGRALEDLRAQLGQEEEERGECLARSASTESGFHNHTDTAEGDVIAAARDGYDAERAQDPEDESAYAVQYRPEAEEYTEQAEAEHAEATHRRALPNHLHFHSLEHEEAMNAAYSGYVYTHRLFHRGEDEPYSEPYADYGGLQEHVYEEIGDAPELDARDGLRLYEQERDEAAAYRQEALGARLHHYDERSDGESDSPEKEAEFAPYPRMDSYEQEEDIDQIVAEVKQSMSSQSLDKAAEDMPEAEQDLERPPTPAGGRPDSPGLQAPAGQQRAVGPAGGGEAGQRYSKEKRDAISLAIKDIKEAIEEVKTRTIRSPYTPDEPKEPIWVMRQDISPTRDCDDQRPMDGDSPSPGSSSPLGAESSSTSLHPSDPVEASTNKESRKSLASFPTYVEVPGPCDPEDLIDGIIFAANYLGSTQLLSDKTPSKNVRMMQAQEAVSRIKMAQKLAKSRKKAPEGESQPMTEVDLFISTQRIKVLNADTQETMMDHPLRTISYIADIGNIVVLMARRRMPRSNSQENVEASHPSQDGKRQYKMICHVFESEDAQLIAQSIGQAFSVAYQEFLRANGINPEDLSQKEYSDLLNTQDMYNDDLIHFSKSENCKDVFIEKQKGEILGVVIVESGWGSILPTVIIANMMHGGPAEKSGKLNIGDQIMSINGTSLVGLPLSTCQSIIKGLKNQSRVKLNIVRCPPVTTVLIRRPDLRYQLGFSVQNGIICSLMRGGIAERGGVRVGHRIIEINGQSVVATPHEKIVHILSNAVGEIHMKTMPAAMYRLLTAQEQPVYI
T3 sequence (Q9HC97 whole entry): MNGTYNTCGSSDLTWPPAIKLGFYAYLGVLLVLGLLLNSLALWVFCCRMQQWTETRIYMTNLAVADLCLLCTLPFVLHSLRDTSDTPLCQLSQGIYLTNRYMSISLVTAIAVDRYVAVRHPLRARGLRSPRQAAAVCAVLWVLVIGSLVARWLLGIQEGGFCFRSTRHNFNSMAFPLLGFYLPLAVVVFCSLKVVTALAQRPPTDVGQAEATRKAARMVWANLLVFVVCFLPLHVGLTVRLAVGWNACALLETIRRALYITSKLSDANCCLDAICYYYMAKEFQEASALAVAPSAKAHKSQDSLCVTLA
T2 sequence (P21554 whole entry): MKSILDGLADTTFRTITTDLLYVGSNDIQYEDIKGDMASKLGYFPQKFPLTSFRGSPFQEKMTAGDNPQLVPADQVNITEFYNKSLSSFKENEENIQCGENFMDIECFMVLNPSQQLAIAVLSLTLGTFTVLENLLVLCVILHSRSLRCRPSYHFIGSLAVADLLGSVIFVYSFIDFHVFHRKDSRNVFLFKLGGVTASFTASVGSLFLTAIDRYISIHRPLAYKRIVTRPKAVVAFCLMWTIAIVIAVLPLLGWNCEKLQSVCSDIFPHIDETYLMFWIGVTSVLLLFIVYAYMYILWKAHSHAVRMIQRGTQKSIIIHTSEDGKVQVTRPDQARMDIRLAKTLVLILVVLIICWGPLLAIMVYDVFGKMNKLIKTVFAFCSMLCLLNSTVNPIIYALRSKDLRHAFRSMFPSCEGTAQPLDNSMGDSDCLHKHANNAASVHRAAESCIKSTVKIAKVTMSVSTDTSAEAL
T5 sequence (P65502 whole entry): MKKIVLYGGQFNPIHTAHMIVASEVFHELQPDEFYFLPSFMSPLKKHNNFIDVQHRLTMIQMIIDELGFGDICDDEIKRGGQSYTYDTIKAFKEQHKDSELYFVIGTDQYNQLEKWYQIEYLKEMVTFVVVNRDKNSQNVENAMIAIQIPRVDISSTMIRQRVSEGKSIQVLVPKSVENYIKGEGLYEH

CCNC(=O)CSc1nnc(-c2cccc(S(=O)(=O)N(CC)CC)c2)n1CCc1ccccc1
IC50 [1]: > 100 µM (inactive) | IC50 [2]: > 100 µM (not active)

COc1ccc(S(=O)(=O)N2CCOCC2)cc1NC(=O)c1ccc(-n2nc(C)cc2C)cc1
IC50 [3]: 20.3 µM (inactive) | EC50 [4]: > 32 µM (inactive) | EC50 [5]: > 32 µM (inactive) | EC50 [6]: > 32 µM (inactive) | EC50 [7]: 0.831 µM (active) | IC50 [8]: > 32 µM (inactive) | IC50 [9]: > 32 µM (inactive)

Cc1cc(Cl)c(OCCCCN2CCOCC2)c(Br)c1
IC50 [10]: > 100 µM (inactive) | IC50 [11]: > 100 µM (inactive)

N#Cc1c(NC(=O)CSc2ncnc3sccc23)oc(-c2ccco2)c1-c1ccco1
IC50 [12]: 8.79 µM (active) | IC50 [13]: 22.9 µM (active) | IC50 [14]: 4.69 µM (active) | IC50 [15]: 27.8 µM (active) | IC50 [16]: 2.82 µM (active)

COc1ccc(NC(=O)/C=C2\SC(=O)NC2=O)cc1
IC50 [17]: > 150 µM (active)

CC(C(=O)Oc1ccc2c(c1)OCO2)N1C(=O)c2ccccc2C1=O (stereo not drawn)
IC50 [18]: > 50 µM (inactive)

COCCNC(=O)/C(C#N)=C/c1cccc(/C=C(\C#N)C(=O)NCCOC)c1
AC50 [19]: 12.7 µM (active) | EC50 [20]: 0.94 µM (active) | IC50 [21]: > 56.8 µM (not active) | IC50 [22]: 1.51 µM (active) | IC50 [23]: > 50 µM (inactive)

Cc1cccc(NS(=O)(=O)c2cccc(C(=O)NNC(=O)c3ccccc3O)c2)c1
EC50 [24]: 0.705 µM (active) | EC50 [25]: 23.5 µM (active) | EC50 [26]: > 100 µM (inactive) | EC50 [27]: 16.1 µM (active)

O=C(Nc1ccc(Cl)nc1)Nc1cccc(F)c1
EC50 [28]: 2.81 µM (active)

CC(C)N(CCNC(=O)c1ccc(CNS(=O)(=O)c2ccc(Br)cc2)cc1)Cc1ccccc1
IC50 [29]: 1.32 µM (active) | IC50 [30]: 0.421 µM (active) | IC50 [31]: > 32 µM (inactive) | IC50 [32]: 3.22 µM (active)

Clc1ccccc1CSc1nnc(-c2ccccn2)n1Cc1cccs1
EC50 [33]: 10.1 µM (inactive) | EC50 [34]: > 32 µM (inactive) | EC50 [35]: > 32 µM (inactive) | EC50 [36]: 4.06 µM (active)

Cc1ccc(OCc2ccc(Cl)cc2)c([N+](=O)[O-])n1
EC50 [37]: > 50 µM (inactive)

COc1ccc(C(=O)N2CCC(=O)c3ccc(Cl)cc32)cc1
IC50 [38]: > 25 µM (inactive)
